Test results as given in patent US12227500B2, “Substituted pyrrolo[2,3-b]pyridines for suppressing toxic endoplasmic reticulum stress” (THE TRUSTEES OF COLUMBIA UNIVERSITY IN THE CITY OF NEW YORK, priority 2018, dated 2025).
pIC50: −log10 of the molar value. Where two headings read alike, the source gives them in different places.

Columns and labels:
[1] = tested on: human stem cell-derived motor neurons derived from a healthy patient; test: CPA survival assay, wild-type human stem cell-derived motor neurons; settings: for motor neuron survival restored, % of vehicle controls (maximum): CPA 33 μM, at 1.2 μM (PF-6260933), 2.4 μM (GNE-495), 0.6 μM (URMC-099)
human ES motor neurons = test: Rescue of CPA toxicity by kinase inhibitors in dilution series (FIG. 3); settings: dilution series, FIG. 3
HGK/MAP4K4 [2] = target: T1, HGK/MAP4K4 (Homo sapiens, UniProt O95819); settings: Ammirati et al. 2015; Ndubaku et al. 2015; cited from earlier work
Target sequence in this assay (O95819 whole entry, species assumed): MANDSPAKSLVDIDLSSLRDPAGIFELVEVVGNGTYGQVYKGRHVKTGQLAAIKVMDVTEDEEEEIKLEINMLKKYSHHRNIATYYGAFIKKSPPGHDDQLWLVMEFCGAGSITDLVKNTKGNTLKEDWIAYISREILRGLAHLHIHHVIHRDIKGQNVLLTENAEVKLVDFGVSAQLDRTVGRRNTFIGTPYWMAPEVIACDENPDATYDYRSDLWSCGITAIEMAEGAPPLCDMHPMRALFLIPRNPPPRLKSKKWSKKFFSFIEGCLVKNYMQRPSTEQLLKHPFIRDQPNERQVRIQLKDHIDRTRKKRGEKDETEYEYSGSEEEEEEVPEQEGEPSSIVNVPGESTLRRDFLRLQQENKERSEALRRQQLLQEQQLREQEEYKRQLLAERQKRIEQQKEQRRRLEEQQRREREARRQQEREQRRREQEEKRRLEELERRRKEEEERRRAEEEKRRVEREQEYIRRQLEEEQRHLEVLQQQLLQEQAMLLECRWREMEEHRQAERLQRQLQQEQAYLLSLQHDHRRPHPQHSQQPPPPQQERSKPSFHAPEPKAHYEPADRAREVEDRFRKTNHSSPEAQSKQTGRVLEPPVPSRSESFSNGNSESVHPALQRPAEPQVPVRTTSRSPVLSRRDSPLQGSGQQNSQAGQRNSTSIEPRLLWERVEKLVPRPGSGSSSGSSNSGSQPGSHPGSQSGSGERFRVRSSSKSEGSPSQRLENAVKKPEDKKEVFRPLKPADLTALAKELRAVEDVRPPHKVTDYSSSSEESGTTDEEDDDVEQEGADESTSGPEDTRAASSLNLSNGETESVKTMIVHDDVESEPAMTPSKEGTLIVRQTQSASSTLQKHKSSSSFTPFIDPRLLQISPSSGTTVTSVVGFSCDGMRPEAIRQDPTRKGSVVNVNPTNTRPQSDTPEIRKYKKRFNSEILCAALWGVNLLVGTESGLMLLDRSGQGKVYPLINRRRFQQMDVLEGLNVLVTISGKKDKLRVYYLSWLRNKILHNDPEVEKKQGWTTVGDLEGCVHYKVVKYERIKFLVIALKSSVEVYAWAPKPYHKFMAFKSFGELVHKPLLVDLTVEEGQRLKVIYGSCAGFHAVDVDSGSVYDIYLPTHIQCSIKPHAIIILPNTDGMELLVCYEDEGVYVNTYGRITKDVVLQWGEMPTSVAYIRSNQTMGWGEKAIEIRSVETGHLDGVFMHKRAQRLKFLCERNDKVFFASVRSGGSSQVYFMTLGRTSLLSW

[3] = tested on: HB9::GFP-SOD1^+/+ human motor neurons; test: Rescue of CPA toxicity in human ESC-derived motor neurons, SOD1^+/+; format: cell-based; settings: 33 μM CPA; for rescue of CPA-induced cell death: WT motor neurons
Description: (§1) One advantage of the stem cell-derived motor neuron survival assay is that it can be easily extended to human motor neurons. To adapt the assay to human cells, we generated a new isogenic pair of ESC lines derived from a human ESC line expressing GFP under the control of the Hb9 motor neuron promoter (HUES3 HB9::GFP, (Di Giorgio et al. 2008)). […] . The pair of cell lines was differentiated into motor neurons in parallel using previously published protocols (Amoroso et al. 2013; […] .
(§2) Differentiation of human isogenic HUES3 ESC HB9::GFP reporter lines into motor neurons was performed as previously described (Maury et al. 2015). Cells were dissociated on day 16 of differentiation, FACS-sorted and plated on poly-ornithine- and laminin-coated surfaces as above. Serum-free human motor neuron plating media was supplemented with the antimitotic UFdU and the neurotrophic factors GDNF, BDNF, CNTF, and IGF1 (all at 10 ng/mL) as described (Johnson-Kerner et al. 2015).

[4] = tested on: HB9::GFP-SOD1^+/A4V human motor neurons; test: Rescue of CPA toxicity in human ESC-derived motor neurons, SOD1^+/A4V; format: cell-based
Description: as §1, §2

MLK3/MAP3K11 = target: T2, MLK3/MAP3K11 (Homo sapiens, UniProt Q16584); test: Radiolabeled ATP kinase assay (Reaction Biology Corp.), MLK3; format: biochemical; settings: 0.1 μM
T2 construct: purchased Reaction Biology Corp
Protocol: (§3) Meanwhile, the same analogs were analyzed in a radiolabeled ATP assay (10 μM ATP; Reaction Biology Corp.) to compare the extent to which they could inhibit the activity of HGK, MLK1, or MLK3 in a cell-free environment (Table S3 and S4).

HGK/MAP4K4 [5] = target: T1, HGK/MAP4K4; test: Radiolabeled ATP kinase assay (Reaction Biology Corp.), HGK; format: biochemical; set-up: purchased Reaction Biology Corp; settings: 10 μM ATP, read-out: % Enzyme Activity (relative to DMSO controls), HGK/MAP4K4, Data 1
Protocol: as §3
Target sequence in this assay (O95819 whole entry): as the sequence (O95819 whole entry, species assumed) above

[6] = tested on: human ES motor neurons carrying the ALS-causing SOD1^A4V mutation; test: cells; format: cell-based; settings: 72 h
Protocol: Next, survival assays were performed with all the analogs at once to generate a low-variability dataset. All compounds were evaluated at concentrations ranging from 0.1-3.0 μM (five-point dilution) in three technical replicates and two biological replicates.

N9 microglial cells = test: TNFα release by LPS-stimulated microglia (ELISA); format: cell-based, mouse; settings: LPS 0.1-5 μM; 24 h
Protocol: To model microglial activation in vitro, we stimulated mouse N9 microglial cells with increasing concentrations of E. coli-derived lipopolysaccharides (LPS) (0.1-5 μM) to measure release of the pro-inflammatory cytokine TNFα into cell culture media.
Cultures were maintained in DMEM containing FBS (10%, Life Technologies) and Glutamax (1%, Life Technologies). […] N9 cells remaining in the culture dishes were treated with AlamarBlue (Thermo Fisher) to assess viability. 5 μL AlamarBlue was added to each well (containing 50 μL culture media) and incubated for 4 h at 37°.

[7] = tested on: ESC-derived spinal motor neurons and interneurons; test: Toxicity of ER stressors in mouse ESC-derived spinal neuron cultures; format: cell-based
Description: One of the selective stressors that we identified was cyclopiazonic acid (CPA), a mycotoxin that reversibly blocks the sarcoendoplasmic reticulum-associated calcium ATPse (SERCA). SERCA is responsible for sequestering calcium from the cytoplasm into the endoplasmic reticulum (ER) (Goeger et al. 1988). SERCA inhibition lowers calcium concentration in the ER, leading to dysfunction of protein folding, activation of the unfolded protein response, ER stress, and apoptosis (Doutheil et al. 1997). […]. For all subsequent experiments, unless stated otherwise, motor neurons were treated with 7.5 μM CPA.
[…]. […] […].
For this analysis, we generated a new ESC line that expresses tdTomato in dI4 and dIL dorsal spinal inhibitory interneurons derived from Ptf1α-expressing progenitors (Hoang et al. 2017, unpublished data). We differentiated this line under conditions that promote the specification of dorsal interneuron identity. FACS-purified tdTomato-expressing interneurons were co-cultured with FACS-purified GFP-expressing spinal motor neurons (FIG. 16E and FIG. 16G).
To strengthen the link between the activation of ER stress and motor neuron degeneration, we extended our study to include two additional compounds that activate ER stress: thapsigargin, a drug that acts similarly to CPA by inhibiting SERCA pumps, but is irreversible (Lytton et al. 1991), and tunicamycin, a drug that triggers ER stress in a calcium-independent manner by inhibiting protein N-glycosylation in the ER (Oslowski et al. 2011). […] Thus, the motor neuron-toxic effects of CPA are likely related to its activation of ER stress pathways and not to its effects on calcium levels or other off-target effects (FIG. 16G).

hSOD1^G93A motor neurons = test: RT-PCR of stress-associated genes after CPA treatment; format: cell-based, mouse
Protocol: . We observed a rapid increase in the expression of Bip and the key downstream effector Chop (Ddit3). Bip was increased 2-fold after 1 hour of CPA exposure, and continued to increase to approximately 5-fold by 8 hours. […] Other genes with >2-fold induction included: p58/PK 255 (6.5 fold at 8 hours), an ER-stress-induced protein kinase; Growth arrest and DNA-damage inducible protein 45 alpha (Gadd45a; […]; Erdj4, a Bip cofactor with involvement in ER associated protein degradation (ERAD) (5-fold at 4-8 hours); Atf4, a downstream mediator of the PERK-axis of the UPR (3-fold at 8 hours); […]; and Nrf2, a PERK substrate (2 fold at 8 hours). Altogether, these expression changes pointed to strong activation of multiple axes of the unfolded protein response (UPR) in motor neurons exposed to CPA (FIG. 19F).
Samples were lysed in TRIzol and frozen at −80° C. until further processing. RNA was extracted using the Qiashredder and Qiagen RNeasy Mini kits (Qiagen) according to the manufacturer's protocol. 1-2 μg total RNA was used for each reverse transcription reaction, and reactions were performed using the TaqMan RT kit (Applied Biosystems, Grand Island, NY, USA). Primer pairs were designed for target transcripts using Primer Express 3.0 (Applied Biosystems). Quantitative PCR reactions were performed using the Power SYBR Green PCR Master Mix (Applied Biosystems). Reactions were run and analyzed on a ViiA 7 (Life Technologies) qPCR instrument using absolute quantification settings.

NUAK1 = NUAK1 (Homo sapiens, UniProt O60285); settings: 0.5 μM inhibitor; Anastassiadis et al. 2011; cited from earlier work
NUAK1, sequence (O60285 whole entry, species assumed): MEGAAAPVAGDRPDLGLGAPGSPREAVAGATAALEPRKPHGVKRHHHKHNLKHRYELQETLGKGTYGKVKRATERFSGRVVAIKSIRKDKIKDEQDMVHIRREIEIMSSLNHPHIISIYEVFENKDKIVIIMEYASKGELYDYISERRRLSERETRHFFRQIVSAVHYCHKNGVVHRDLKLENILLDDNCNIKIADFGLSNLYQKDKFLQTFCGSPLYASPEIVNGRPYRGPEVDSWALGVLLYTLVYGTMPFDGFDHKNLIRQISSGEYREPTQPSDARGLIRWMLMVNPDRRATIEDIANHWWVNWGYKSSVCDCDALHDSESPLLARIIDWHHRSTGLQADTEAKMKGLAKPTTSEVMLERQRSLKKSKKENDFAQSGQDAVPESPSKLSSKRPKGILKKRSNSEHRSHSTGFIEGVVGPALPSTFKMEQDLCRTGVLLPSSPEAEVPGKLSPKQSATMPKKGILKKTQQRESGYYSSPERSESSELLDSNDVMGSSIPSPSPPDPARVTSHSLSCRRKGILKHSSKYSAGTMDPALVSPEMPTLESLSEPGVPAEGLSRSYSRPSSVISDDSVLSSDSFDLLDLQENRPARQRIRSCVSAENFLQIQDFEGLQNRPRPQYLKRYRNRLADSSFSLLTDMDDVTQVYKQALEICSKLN

T2 sequence (Q16584 whole entry): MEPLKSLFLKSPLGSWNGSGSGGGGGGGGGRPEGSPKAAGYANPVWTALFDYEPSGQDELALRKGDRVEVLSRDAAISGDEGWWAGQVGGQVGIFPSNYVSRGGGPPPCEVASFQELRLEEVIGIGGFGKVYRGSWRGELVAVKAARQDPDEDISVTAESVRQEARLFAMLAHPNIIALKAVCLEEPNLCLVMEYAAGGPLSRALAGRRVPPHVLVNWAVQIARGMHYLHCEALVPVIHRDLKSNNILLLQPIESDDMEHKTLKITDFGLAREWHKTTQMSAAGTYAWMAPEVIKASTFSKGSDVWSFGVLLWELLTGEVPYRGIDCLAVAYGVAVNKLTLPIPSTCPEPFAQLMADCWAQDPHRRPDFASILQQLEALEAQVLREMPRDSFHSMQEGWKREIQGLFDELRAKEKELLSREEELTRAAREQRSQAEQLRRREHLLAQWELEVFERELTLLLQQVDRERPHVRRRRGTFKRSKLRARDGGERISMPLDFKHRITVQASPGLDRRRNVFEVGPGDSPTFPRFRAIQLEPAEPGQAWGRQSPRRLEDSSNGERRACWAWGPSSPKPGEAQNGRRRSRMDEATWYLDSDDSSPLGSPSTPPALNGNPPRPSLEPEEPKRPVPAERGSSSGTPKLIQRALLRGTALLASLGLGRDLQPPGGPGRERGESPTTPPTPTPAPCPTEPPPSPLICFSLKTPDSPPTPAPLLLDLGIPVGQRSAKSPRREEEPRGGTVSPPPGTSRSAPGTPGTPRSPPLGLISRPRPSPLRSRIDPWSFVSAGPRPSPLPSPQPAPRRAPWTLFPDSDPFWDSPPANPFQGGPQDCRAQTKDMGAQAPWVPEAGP

SMILES: Nc1ncc(C(=O)NC2CN(C(=O)C3CC3)C2)c2ccc(-c3cccc(F)c3)nc12 [GNE-495]
- motor neuron survival restored, % of vehicle controls (maximum) [1]: 73%
- rescue of CPA toxicity (human ES motor neurons): similarly neuroprotective
- pIC50 (HGK/MAP4K4 [2]): 8.43

SMILES: Cn1c2ccccc2c2c3c(c4c5ccccc5n(CCC#N)c4c21)CNC3=O [Go 6976]
- rescue of CPA-induced cell death [3]: 45%
- rescue of CPA-induced cell death ([4]; SOD1^A4V motor neurons, 33 μM CPA): 34%

SMILES: CN1CC2CCC(C1)N2Cc1ccc(-c2cnc3[nH]cc(-c4cccc5[nH]ncc45)c3c2)cc1 [Compound 12e, 4-(5-(4-((3-Methyl-3,8-diazabicyclo[3.2.1]octan-8-yl)methyl)phenyl)-1H-pyrrolo[2,3-b]pyridin-3-yl)-1H-indazole]
- remaining activity at 0.1 µM (MLK3/MAP3K11): 71.8%
- remaining activity at 0.025 µM (HGK/MAP4K4 [5]; [Cmpd] 0.025 μM): 2.73%
- remaining activity at 0.1 µM (HGK/MAP4K4 [5]; [Cmpd] 0.1 μM): 0.99%
- EC50 ([6]; CPA 33 μM): Amibiguous
- viability at 1 µM ([6]; Homo sapiens, Neuron, CPA (33 μM) + compound (1 μM), read-out: Motor Neuron Survival, % untreated): 106%
- Emax ([6]; Homo sapiens, Neuron, CPA 33 μM, read-out: Emax (MN survival % untreated)): 144%
- TNFα secretion in LPS-stimulated microglia (N9 microglial cells): did not significantly decrease TNFα levels

SMILES: Nc1ccc(-c2cnc(N)c(-c3ccc(Cl)cc3)c2)cn1 [PF-6260933]
- motor neuron survival restored, % of vehicle controls (maximum) [1]: 63%
- rescue of CPA toxicity (human ES motor neurons): protected against CPA toxicity in a dose-dependent manner
- pIC50 (HGK/MAP4K4 [2]): 8.43

SMILES: COC(=O)[C@@]1(O)C[C@H]2O[C@]1(C)n1c3ccccc3c3c4c(c5c6ccccc6n2c5c31)C(=O)NC4 [Compound K-252a]
- rescue of CPA-induced cell death [3]: 56%
- rescue of CPA-induced cell death [4]: 100%

SMILES: CC(=O)C1=C(O)[C@@H]2[C@H]3c4c[nH]c5cccc(c45)C[C@H]3C(C)(C)N2C1=O [CPA, cyclopiazonic acid]
- effective concentration range at which mutant motor neurons exhibit reduced survival compared to control [7]: 6.25 to 12.5 µM
- reduction of survival of GFP− Tuj-1+ non-motor neurons [7]: ~23%
- reduction of survival of motor neurons (GFP+, Tuj1+) [7]: ~71%
- reduction of co-cultured spinal motor neuron survival ([7]; FACS-purified co-culture, CPA): ~70%
- reduction of dorsal spinal interneuron survival ([7]; FACS-purified co-culture, CPA): ~17%
- motor neuron survival, % of controls treated with vehicle alone ([1]; CPA 33 μM for 72h, alone): ~40%
- loss of motor neurons [3]: ~71%
- loss of motor neurons ([4]; 33 μM CPA): ~86%
- Erdj4 induction (hSOD1^G93A motor neurons; 4-8 hours): 5 fold
- Chop induction (hSOD1^G93A motor neurons; 4 and 8 hours): 16 fold
- Chop induction (hSOD1^G93A motor neurons; 1 hour): 4 fold
- Bip expression increase (hSOD1^G93A motor neurons; 1 hour of CPA exposure): 2 fold
- Gadd45a induction (hSOD1^G93A motor neurons; 4 hours): 5 fold
- Atf4 induction (hSOD1^G93A motor neurons; 8 hours): 3 fold
- Bip expression increase (hSOD1^G93A motor neurons; 8 hours): approximately 5 fold
- Calreticulin induction (hSOD1^G93A motor neurons; 8 hours): 3 fold
- Nrf2 induction (hSOD1^G93A motor neurons; 8 hours): 2 fold
- p58/PK induction (hSOD1^G93A motor neurons; 8 hours): 6.5 fold

SMILES: CN(C)S(=O)(=O)c1ccc2c(c1)/C(=C/c1cc3c([nH]1)CCCC3)C(=O)N2 [SU6656]
- NUAK1 activity remaining (NUAK1): 10.9%
- rescue of CPA toxicity (human ES motor neurons): failed to rescue CPA toxicity
